The melting point is the temperature, or range, at which the solid turns liquid.

SMILES strings stand for the structures.

As to `O=C(CCNc1c(C(=O)O)[nH]c2cc(Cl)cc(Cl)c12)c1cccc(F)c1`, the melting point lay within 270 to 280 °C. Regarding `COc1ccc2c(c1)c1c(n2CCCN(C)C)CCCSCC1`, the melting point fell in the range of 79 to 80 °C. The same measure for `C=Cc1cc(CNC(=O)NCc2ccc(C(C)(C)C)cc2)cc(Cl)c1NS(C)(=O)=O`: 165 to 167 °C. Molecule `Cc1ccc(NS(=O)(=O)c2cccs2)c2[nH]c(C(=O)NCCSC(c3ccccc3)(c3ccccc3)c3ccccc3)cc12` showed a melting point of 241 to 242 °C. `CC(=O)Nc1ccc(S(=O)(=O)Nc2ccc(S(=O)(=O)C=CC#N)cc2)cc1`: the melting point was 204 to 205 °C. The same measure for `O/N=C(/c1ccc(Cl)cc1)C1CC1`: 101 to 103 °C. The molecule `Cc1nc(/C=C/c2cn(-c3ccccc3)nc2O)cs1` came in with a melting point of 211 to 212 °C. The molecule `CCC1(CC(=O)OC)OCCc2c1[nH]c1c(CCO)c(F)ccc21` (centres undefined) had a melting point of 101 to 103 °C. For `Cc1c(OC(F)F)ccnc1CSc1nc2ccc(OC(F)F)cc2[nH]1`, the melting point was in the range of 181 to 182 °C.

As to `CC1(C)N[C@H](Cc2ccc(Br)cc2)[C@@H]2C(=O)N(Cc3ccccc3)C(=O)[C@@H]21` (racemic), the melting point is 142 to 143 °C. The same measure for `Cn1nc([N+](=O)[O-])nc1Br`: 90.5 to 91.5 °C; for `NCC(=O)Nc1ccc(Br)cc1C(=NCCO)c1ccccc1F`: 167 to 168 °C. For `CCCCCCCCCCCCCCOc1ccc(NC(=O)Nc2cccc(CO)c2)cc1`, the melting point lay within 150 to 158 °C. Regarding `CCC1(CCCCN2CCc3sc(Cl)cc3C2)C(=O)Nc2ccccc21` (centres undefined), the melting point fell in the range of 117 to 119 °C. The value for `O=C1Nc2cccc(-c3ccoc3)c2C12COc1cc3c(cc12)OCO3` (centres undefined) was 230 to 231 °C; that for `O=C(O)c1cccc2ncc(C3CCCCC3)cc12` was over 280 °C; that for `Cc1nn(-c2cccc(C(F)(F)F)c2)cc1C(=O)O` was 166 to 168 °C. The value for `CON(C)C(=O)Cc1cc(Oc2ccc(C(F)(F)F)cc2Cl)ccc1[N+](=O)[O-]` was 134 to 135 °C; that for `O=C(CNc1ccccc1F)Nc1ccc(O)cc1` was 143 to 146 °C; that for `CCOC(=O)c1cn(NC=O)c2cc3c(cc2c1=O)OCO3` was 255 to 257 °C. The same measure for `CCCOC(=NC#N)c1ccc(N)nc1`: 150 °C; for `CCCCCCCCCCCCCCCC(=O)Oc1ccc(C(O)C(C)N2CCC(Cc3ccccc3)CC2)cc1` (centres undefined): 75 to 77 °C; for `CCn1cc(C(=O)O)c(=O)c2cc(F)c(Cl)nc21`: 265 to 267 °C. Molecule `N#Cc1ccccc1NC1=CC(=O)CCC1` yielded a melting point of 206 °C.

`N#Cc1nc(-c2c(Cl)cc(C(F)(F)F)cc2Cl)[nH]c1C#N`: the melting point was 194 to 195 °C. The same measure for `Cn1c(=O)sc2cc(N3C[C@H](C(=O)NCCF)OC3=O)ccc21`: 201 to 203 °C; for `COC(c1cc2c3c(c1)c(C)cc(=O)n3CC2)(C(F)(F)F)C(F)(F)F`: 242 to 243 °C; for `CC(CN1CCN(C)CC1)OC(=O)c1c[nH]c2ccccc12` (centres undefined): 166 °C.

Turning to `CC(C)(C)OC(=O)N1CCc2cc(OCc3ccccc3)c(OCc3ccccc3)cc2C1Cc1ccc(NC(=O)c2ccccc2)c(I)c1` (centres undefined), the melting point is 151 to 153 °C. The same measure for `COc1cc(N)c2nccc(C)c2c1F`: 126 to 128 °C; for `Cc1cccc(OC(=O)C(=O)Oc2cccc(C)c2)c1`: 101 to 103 °C; for `O=C1CN2C(=O)CCC2N1` (centres undefined): 155 to 157 °C. The value for `CS(=O)(=O)Nc1cc2oc(N)c(C(N)=O)c(=O)c2cc1Oc1ccccc1` was over 250 °C; that for `COc1c(F)c(F)c(-c2c3ccccc3c(-c3ccccc3)c3ccccc23)c(F)c1F` was 153 to 154 °C; that for `CC12C=CC(=O)C=C1CCC1C2CCC2(C)C(=O)COC12` (centres undefined) was 181 to 185 °C.

In turn, `COc1ccc(Cl)cc1-c1c(Sc2ccncc2)c(=O)[nH]c2ccc(C(F)(F)F)cc12` showed a melting point of 257 to 260 °C. The value for `O=C(NC(=O)c1c(Cl)cccc1Cl)Nc1ccc(OC(F)(F)F)cc1` was 202 °C; that for `COC(=O)c1sc(C)c(C#N)c1N` was 209 to 210 °C. The value for `Cc1nnc2nc(-c3ccccc3F)cnn12` was 227 to 229 °C; that for `CCC1Nc2cc(F)c(F)cc2-n2cccc21` (centres undefined) was 67 to 69 °C. The value for `COc1cc2c(cc1OC)CN(c1c(C)c(C)c3c(c1C)C(c1ccccc1)C(C)(C)O3)C2` (centres undefined) was 154 to 157 °C. `Cn1nnnc1-c1cn(C)c2cc(Cl)ccc2c1=O` came in with a melting point of 270 to 273 °C. On to `COc1cc2c(cc1OC)C(C(S)(C#N)c1ccccc1)=NCC2` (centres undefined), for which the melting point fell in the range of 160 to 161 °C. The same measure for `COc1ccc(C2(c3nc(N)nc(N)n3)CCCCC2)cc1`: 159 to 163 °C. The same measure for `CCOC(=O)c1cccc(/C=C/C(=O)c2cc(O)ccc2[N+](=O)[O-])c1`: 157 to 159 °C. The same measure for `CCOP(=O)(/C=C/c1nc(-c2ccccc2)oc1COc1ccc(OCc2nc(-c3ccccc3)oc2C)cc1)OCC`: 124 to 125 °C; for `CC(=O)Oc1cc2oc(=O)cc(CSc3ccccc3C(=O)O)c2cc1OC(C)=O`: 216 to 218 °C; for `[N-]=[N+]=CC(=O)c1cccc(S(N)(=O)=O)c1`: 142 °C.

As to `ClC(Cl)(Cl)SNc1nc(C(Cl)(Cl)Cl)ns1`, the melting point came to 180 °C. The same measure for `N#Cc1cc([N+](=O)[O-])ccc1OCc1ccc2ccccc2n1`: 161 to 162 °C. Regarding `COc1ccccc1Oc1c(NS(=O)(=O)c2ccc(C(C)(C)C)cc2)nc(NCCN(C)C)nc1OCCOC1CCCCO1` (centres undefined), the melting point lay within 82 to 86 °C. The same measure for `CCCCC1(CCCC)CCc2c(OCc3ccccc3C(N)=O)cccc2C1O` (centres undefined): 73 to 75 °C; for `CCOc1ccc2c(c1)n(C1CCCCC1)c(=O)n2Cc1ccc(N)cc1OC`: 191 °C. Consider `Cc1ccc2c(c1)C(=O)N(Nc1ccccc1)C2=O`, for which the melting point is 168 to 170 °C.

For the molecule `COc1ccc(C2C3=C(COC3=O)Nc3ccc4nc(S)[nH]c4c32)cc1O` (centres undefined), the melting point fell in the range of 334 to 337 °C. The value for `CC12CCC(O)CC1CCC1C2CCC2(C)C(C(O)CO)CCC12` (centres undefined) was 210 to 212 °C; that for `CC(O)C(C)(C)NC(N)=S` (centres undefined) was 148 to 151 °C.

Regarding `COCc1cc(OCc2ccccc2)c2nc(C)c(C)n2c1`, the melting point is 107 °C.

`CN(C(=O)c1ccc(Cl)cc1)[C@@H]1CCN(C(=O)Nc2ccc(F)nc2)C[C@H]1c1ccc(Cl)c(Cl)c1` came in with a melting point of 156 to 158 °C. `CC(C)N(CCOc1ccccc1NC(=O)c1cccc2[nH]ccc12)C(C)C` displayed a melting point of 145 °C. As for `COC(=O)c1ccc(N2CC(CNC(C)=S)OC2=O)cc1F` (centres undefined), the melting point was in the range of 152 to 154 °C. As for `CN(C)c1cccc(Oc2cccc(-c3cccc(C(=O)NCCC#N)c3)n2)c1`, the melting point lay within 95 to 96 °C.

For `Oc1cnccc1CCCOc1cccnc1Oc1ccccc1`, the melting point fell in the range of 163 to 165 °C. With `CN(Cc1ncco1)C1CCCN(C(=O)c2ccc(Nc3nccc(Nc4ccc(F)cc4)n3)cc2)C1` (centres undefined), the melting point was 155 to 157 °C. The same measure for `CCCNS(=O)(=O)c1nc2ccc(OCC)cc2s1`: 112 to 113 °C; for `CC(SC1COC(c2ccc(C(=O)Nc3ccc(Br)cc3)cc2)OC1)C(O)(Cn1cncn1)c1ccc(F)cc1F` (centres undefined): 221 °C; for `COC(=O)c1ccc(I)cc1Nc1ccccc1C(=O)O`: 206 to 208 °C. `C=CCOc1ccc(C(=O)CC(C#N)c2ccc(OC)cc2OC)cc1` (centres undefined) registered a melting point of 112 to 113 °C. In turn, `OC[C@H](O)CN1CCC[C@@H](Nc2nccc(-c3c(-c4cccc(O)c4)nc4sccn34)n2)C1` displayed a melting point of 185 to 187 °C. The same measure for `COC1(OCCc2nc(C(C)C)c(Sc3cc(Cl)cc(Cl)c3)n2C)C2CC3CC(C2)CC1C3` (centres undefined): 74.5 to 76 °C; for `O=C1CCC(c2cc(F)c(Br)cc2F)C1` (centres undefined): 63 to 65 °C. Molecule `CCCOc1ccc(C#N)cc1-c1ccc(C#N)c(=O)[nH]1` displayed a melting point of 248 to 251 °C. The same measure for `CC(C)CCNC(=O)c1ccc2c(c1)N(C(C)CN(C)C)c1ccccc1S2` (racemic): 105 °C.

In the case of `CCCC(CCC)(CCC)NC(=O)N(C)C`, the melting point worked out at 88 °C. The value for `N#Cc1cnc2cc(O)ccc2c1Nc1ccc(Cl)cc1F` was 295 to 305 °C. The value for `COc1cc(OC)c(-c2ccc(O)c(C34CC5CC(CC(C5)C3)C4)c2)cc1C=C1SC(C2CCNC2)=NC1=O` (centres undefined) was 343 to 345 °C; that for `O=c1[nH]c2ccccc2n1CCCN1CCC(OC(c2ccccc2)c2ccccc2)CC1` was 149 °C. The value for `COc1cc(CCN2CCC(NC(=O)c3ccccc3)CC2)cc(OC)c1OC` was 193 to 194 °C; that for `Cc1ccc(Cl)cc1-c1cccc2c1OC(CN)C2` (centres undefined) was 146 to 150 °C; that for `CC(C)N1C(=O)NC(c2ccccc2)c2cc3c(cc21)OCO3` (centres undefined) was 165 to 168 °C. `CC(C)(C)c1cc(C(=O)CI)cc(C(C)(C)C)c1O` yielded a melting point of 88 to 89 °C. The same measure for `COc1cc2c(Nc3ccc(Cl)cc3F)ncnc2cc1OCCN1CCNC1=O`: over 250 °C. The value for `CC(C)(C)OC(=O)Nc1ccc(OCc2ccccc2)c(C(=O)O)c1` was 136 to 139 °C; that for `Cc1ccc(C(=O)n2c3c(c4cc(C)ccc42)CC(C(=O)O)CC3)cc1` (centres undefined) was 200 to 203 °C; that for `CC1=C(c2ccccc2)C(c2ccccc2Cl)C([N+](=O)[O-])=C(C)N1` (centres undefined) was 232 °C. The value for `O=C(CCCCOc1ccccc1O)C(F)(F)F` was 51 to 52 °C.

On to `COc1ccc2c(c1)c(CC(=O)NN)c(C)n2Cc1c(Cl)cccc1Cl`, for which the melting point lay within 194 to 196 °C. The value for `C#CCNC(=O)NC1CCC(=O)c2sccc21` (centres undefined) was 170 to 183 °C; that for `CCCc1cn(C)c2c(=O)[nH]c(-c3cc(S(=O)(=O)N4CCN(CCCOC(=O)[C@@H](NC(=O)OC(C)(C)C)C(C)C)CC4)ccc3OCC)nc12` was 132 to 134 °C.

Values taken from a melting point compilation (Tetko et al.; mined from patent text by program, amines drawn as free bases though some values may be those of a salt).
